Measured values taken from patent publication US10830746B2, “Quantitation of Tamoxifen and metabolites thereof by mass spectrometry” (QUEST DIAGNOSTICS INVESTMENTS INCORPORATED, priority 2014, dated 2020).

Test: Quantitation of tamoxifen and its metabolites in patient serum by LC-MS/MS
Details: expected values in serum
Description: In the following procedure, tamoxifen and its metabolites are extracted from serum. The serum is added to a filter plate, and then mixed with acetonitrile/IS, which then forms a precipitate. The mixture is then placed on a positive pressure manifold, and the organic fraction is passed through to a collection plate. The plate is lidded, and then placed on the Cohesive system for injection onto MS/MS. The MS is in APCI-positive mode. The quantitation is based upon unique parent-product transitions. Those analytes with similar transitions were separated chromatographically.
A 12-point calibration is used for each analyte. Initially, only one standard is made (Std-12), with a series of dilutions performed to generate the remaining standards. The standard (#12) is to be removed from the −70° C. freezer and thawed. While thawing, label twelve 12×75 mm tubes.
Add 3.0 mL of std-12 to tube 12. From this standard, you will follow the table below to create the standard curve. A standard curve is to be generated with each assay. Place the initial standard back in the −60 to −90° C. freezer.
A Thermo LC/MS/MS system containing the following modules was used for this assay:
The extraction is a protein precipitation, followed by filtration. Analysis and quantitation is then performed by LC/MS/MS.
Norendoxifen is extracted from serum using protein precipitation, followed by filtration. Analysis and quantitation is then performed by LC/MS/MS.

For Tamoxifen, the “Reference Ranges” value was 12.54 to 233.07 ng/mL.

Same assay, conditions: human, in vivo

4-Hydroxy Tamoxifen and CC/C(=C(\c1ccccc1)c1ccc(OCCN(C)C)cc1)c1ccc(O)cc1 [4′-Hydroxy Tamoxifen] cannot be ordered by “Reference Ranges” value: 0.24 to 5.05 ng/mL for the first, 0.4 to 6.33 ng/mL for the second.

CC/C(=C(\c1ccccc1)c1ccc(OCCNC)cc1)c1ccccc1 [N-Desmethyl Tamoxifen] and CCC(=C(c1ccccc1)c1ccc(OCCNC)cc1)c1ccc(O)cc1 [N-Desmethyl-4′-Hydroxy Tamoxifen] cannot be ordered by “Reference Ranges” value: 2.59 to 373.96 ng/mL for the first, 1.17 to 19.95 ng/mL for the second.

For CC/C(=C(\c1ccc(O)cc1)c1ccc(OCCNC)cc1)c1ccccc1 [N-Desmethyl-4-Hydroxy Tamoxifen], the “Reference Ranges” value was 0.93 to 43.19 ng/mL.
